Results reported in patent US20050245563A1 (Millennium Pharmaceuticals, Inc., priority 2003, published 2005).
pIC50: −log10 of the molar value.

Biological target: T1, human Chk1 (GST-Chk1) (Homo sapiens, UniProt O14757)
T1 construct: made in house; host or cells: insect cells (baculovirus, Bac-to-Bac)
T1 sequence (O14757 1-476): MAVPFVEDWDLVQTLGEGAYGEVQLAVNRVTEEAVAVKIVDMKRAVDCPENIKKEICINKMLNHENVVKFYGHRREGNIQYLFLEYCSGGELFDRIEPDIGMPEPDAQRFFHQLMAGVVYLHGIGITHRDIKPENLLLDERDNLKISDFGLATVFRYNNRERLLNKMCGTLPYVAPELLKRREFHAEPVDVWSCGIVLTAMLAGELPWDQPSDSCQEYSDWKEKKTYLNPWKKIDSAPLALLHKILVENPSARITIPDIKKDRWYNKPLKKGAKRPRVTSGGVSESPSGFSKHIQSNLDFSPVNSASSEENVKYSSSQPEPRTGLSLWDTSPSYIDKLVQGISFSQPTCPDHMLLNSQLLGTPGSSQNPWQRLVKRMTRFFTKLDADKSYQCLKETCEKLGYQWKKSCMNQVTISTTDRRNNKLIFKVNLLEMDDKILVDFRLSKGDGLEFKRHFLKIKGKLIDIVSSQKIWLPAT
Assay: Chk1 DELFIA kinase assay (2 nM GST-Chk1, 600 μM ATP)
Format: biochemical
Details: Biotin-GLYRSPSMPEN-amide substrate
Description: Recombinant human Chk1 was expressed as a fusion protein with glutathione S-transferase at the amino-terminus (GST-Chk1) using standard baculovirus vectors and (Bac-to-Bac®) insect cell expression system purchased from GIBCO™ Invitrogen. Recombinant protein expressed in insect cells was purified using glutathione sepharose (Amersham Biotech) using standard procedures described by the manufacturer.
Chk1 DELFIA® Kinase Assay:
Assays (25 μL) utilized 2 nM GST-Chk1 containing 10 mM Tris, pH 7.5, 20% glycerol, 50 mM sodium chloride (NaCl), 0.01% Surfact-Amps® 20, 1 μM peptide stubstrate (Biotin-GLYRSPSMPEN-amide) (SEQ ID NO: 3), 01.% BSA, 2 mM DTT, 4% DMSO, 600 μM ATP, 10 MM MgCl2 and reacted for 50 minutes at room temperature. Reactions were terminated with 100 μL of Stop buffer containing 1% BSA, 10 mM Tris, pH 8.0, 150 mM NaCl, 100 mM EDTA. Stopped reactions (100 μL) were transferred to 96 well NeutrAvidin plates (Pierce) to capture the biotin-peptide substrate during a 30 minute room temperature incubation. Wells were washed and reacted with 100 μL PerkinElmer Wallac Assay Buffer containing 21.5 ng/ml anti-phospho-Ser216-Cdc25c rabbit polyclonal antibody from Cell Signaling Technology (Beverly, Mass.) and 292 ng/ml europium labeled anti-rabbit-IgG for 1 hour at room temperature. Wells were washed and europium released from the bound antibody by addition of Enhancement Solution (100 μL) (PerkinElmer Wallac) and detected using a Perkin Elmer Wallac Envison™ 2100 multilabel reader using standard manufacturer settings.

| SMILES | pIC50 |
| --- | --- |
| CCCOCCc1[nH]nc2c1c(=O)n(CCCN)c1ccc(Cl)cc21 [Example 321, 5-(3-Amino-propyl)-8-chloro-3-(2-propoxy-ethyl)-2,5-dihydro-pyrazolo[4,3-c]quinolin-4-one] | > 6.00 |
| Cc1[nH]nc2c1c(=O)n(CCCN)c1ccc(-c3cccnc3)cc21 [Example 308, 5-(3-Amino-propyl)-3-methyl-8-pyridin-3-yl-2,5-dihydro-pyrazolo[4,3-c]quinolin-4-one] | > 6.00 |
| CC(=O)NCCCc1ccc2c(c1)c1n[nH]c(C)c1c(=O)n2CCCN [Example 298, N-{3-[5-(3-Amino-propyl)-3-methyl-4-oxo-4,5-dihydro-2H-pyrazolo[4,3-c]quinolin-8-yl]-propyl}-acetamide] | > 6.00 |
| C#Cc1ccc2c(c1)c1n[nH]c(CC)c1c(=O)n2CCCNC [Example 304, 8-Ethynyl-3-ethyl-5-(3-methylamino-propyl)-2,5-dihydro-pyrazolo[4,3-c]quinolin-4-one] | > 6.00 |
| Cc1[nH]nc2c1c(=O)n(C[C@H](C)CN)c1ccc(F)cc21 (stereo in doubt) [Compound 202, 5-(3-Amino-2-methyl-propyl)-8-fluoro-3-methyl-2,5-dihydro-pyrazolo[4,3-c]quinolin-4-one] | > 6.00 |
| Cc1[nH]nc2c1c(=O)n(CCC(C)N)c1ccc(Cl)cc21 (centres unmarked) [Compound 216, 5-(3-Amino-butyl)-8-chloro 3-methyl-2,5-dihydro-pyrazolo[4,3-c]quinolin-4-one] | > 6.00 |
| NCCCn1c(=O)c2c(CCO)[nH]nc2c2cc(C#CCN3CCCC3)ccc21 [Example 328, 5-(3-Amino-propyl)-3-(2-hydroxy-ethyl)-8-(3-pyrrolidin-1-yl-prop-1-ynyl)-2,5-dihydro-pyrazolo [4,3-c]quinolin-4-one] | > 6.00 |
| CC(=O)NCC#Cc1ccc2c(c1)c1n[nH]c(C)c1c(=O)n2CCCN [Example 276, N-{^3-[5-(3-Amino-propyl)-3-methyl-4-oxo4,5-dihydro-2H-pyrazolo[4,3-c]quinolin-8-yl]-prop-2-ynyl]-acetamide] | > 6.00 |
| Cc1[nH]nc2c1c(=O)n(C)c1c(C#CCO)cc(Cl)cc21 [Compound 344, 8-Chloro-6-(3-hydroxy-prop-1-ynyl)-3,5-dimethyl-2,5-dihydro-pyrazolo[4,3-c]quinolin-4-one] | 5.00 to 6.00 |
| COCCc1[nH]nc2c1c(=O)n(C[C@H](C)CN)c1ccc(Cl)cc21 [Example 223, 5-(3-Amino-2R-methyl-propyl)-8-chloro-3-(2-methoxy-ethyl)-2,5-dihydro-pyrazolo[4,3-c]quinolin-4-one] | > 6.00 |
| Cc1[nH]nc2c1c(=O)n(C)c1c(CCCO)cc(Cl)cc21 [Example 367, 8-Chloro-6-(3-hydroxy-propyl)-3,5-dimethyl-2,5-dihydro-pyrazolo[4,3-c]quinolin-4-one] | > 6.00 |
| Cc1[nH]nc2c1c(=O)n(CCCN)c1cc(C#CCN3CCCC3)ccc21 [Example 340, 5-(3-Amino-propyl)-3-methyl-7-(3-pyrrolidin-1-yl-prop-1-ynyl)-2,5-dihydro-pyrazolo [4,3-c]quinolin-4-one] | > 6.00 |
| NCCCn1c(=O)c2c(CCOCc3ccccc3)[nH]nc2c2cc(Cl)ccc21 [Example 362, 5-(3-Amino-propyl)-3-(2-benzyloxy-ethyl)-8-chloro-2,5-dihydro-pyrazolo[4,3-c]quinolin-4-one] | > 6.00 |
| Cc1[nH]nc2c1c(=O)n(CCCN)c1ccc(-c3ccoc3)cc21 [Example 309, 5-(3-Amino-propyl)-8-furan-3-yl-3-methyl-2,5-dihydro-pyrazolo[4,3-c]quinolin-4-one] | > 6.00 |
| COCCc1[nH]nc2c1c(=O)n(C[C@@H]1CCCNC1)c1ccc(Cl)cc21 [Example 226, 8-Chloro-3-(2-methoxy-ethyl)-5R-piperidin-3-ylmethyl-2,5-dihydro-pyrazolo[4,3-c]quinolin-4-one] | > 6.00 |
| CNCC#Cc1ccc2c(c1)c1n[nH]c(C)c1c(=O)n2CCCN [Example 274, 5-(3-Amino-propyl)-3-methyl 8-(3-methylamino-prop-1-ynyl]-2,5-dihydro-pyrazolo[4,3-c]quinolin-4-one] | > 6.00 |
| CNCCCn1c(=O)c2c(C)[nH]nc2c2cc(Cl)ccc21 [Example 231, 8-Chloro-3-methyl-5-(3-methylamino-propyl)-2,5-dihydro-pyrazolo[4,3-c]quinolin-4-one] | > 6.00 |
| Cc1[nH]nc2c1c(=O)n(CCCN)c1cc(C(=O)NCCCN(C)C)ccc21 [Example 337] | > 6.00 |
| Cc1[nH]nc2c1c(=O)n(CC(O)C1CCCN1)c1ccc(Cl)cc21 (centres unmarked) [Example 246, 8-Chloro-5-(2-hydroxy-2-pyrrolidin-2-yl-ethyl)-3-methyl-2,5-dihydro-pyrazolo[4,3-c]quinolin-4-one] | > 6.00 |

Results, then the molecule that gave them:

| pIC50 | SMILES |
| --- | --- |
| > 6.00 | Cc1[nH]nc2c1c(=O)n(CCCN)c1ccc(C#N)cc21 [Example 271, 5-(3-Amino-propyl)-3-methyl-4-oxo-4,5-dihydro-2H-pyrazolo[4,3-c]quinoline-8-carbonitrile] |
| > 6.00 | Cc1[nH]nc2c1c(=O)n(CCCN)c1ccc(N)cc21 [Example 260, 8-Amino-5-(3-amino-propyl)-3-methyl-2,5-dihydro-pyrazolo[4,3-c]quinolin-4-one] |
| > 6.00 | Cc1[nH]nc2c1c(=O)n(CCCNCc1ncc[nH]1)c1ccc(Cl)cc21 [Example 244, 8-Chloro-5-{3-[(1H-imidazol-2-ylmethyl)-amino]-propyl}-3-methyl-2,5-dihydro-pyrazolo[4,3-c]quinolin-4-one] |
| > 6.00 | Cc1[nH]nc2c1c(=O)n(CC1CNC1)c1ccc(Cl)cc21 [Example 228, 5-Azetidin-3-ylmethyl-8-chloro-3-methyl-2,5-dihydro-pyrazolo[4,3-c]quinolin-4-one] |
| > 6.00 | Cc1[nH]nc2c1c(=O)n(CC[C@@H](C)N)c1ccc(Cl)cc21 [Example 217, 5-(3R-Amino-butyl)-8-chloro 3-methyl-2,5-dihydro-pyrazolo[4,3-c]quinolin-4-one] |
| > 6.00 | COCCc1[nH]nc2c1c(=O)n(CCCN)c1ccc(C#CCN3CCCC3)cc21 [Example 305, 5-(3-Amino-propyl)-3-(2-methoxy-ethyl)-8-(3-pyrrolidin-1-yl-prop-1-ynyl)-2,5-dihydro-pyrazolo[4,3-c]quinolin-4-one] |
| > 6.00 | CC(=O)N1CCN(CC#Cc2ccc3c(c2)c2n[nH]c(C)c2c(=O)n3CCCN)CC1 [Example 287, 8-[3-(4-Acetyl-piperazin-1-yl)-prop-1-ynyl]-5-(3-amino-propyl)-3-methyl-2,5-dihydro-pyrazolo[4,3-c]quinolin-4-one] |
| > 6.00 | COCCCc1ccc2c(c1)c1n[nH]c(C)c1c(=O)n2CCCN [Example 295, 5-(3-amino-propyl)-8-(3-methoxypropyl)-3-methyl-2,5-dihydro-pyrazolo[4,3-c]quinolin-4-one] |
| > 6.00 | Cc1[nH]nc2c1c(=O)n(CCCN)c1ccc(OCc3ccccc3)cc21 [Example 257, 5-(3-Amino-propyl)-8-benzyloxy-3-methyl-2,5-dihydro-pyrazolo[4,3-c]quinolin-4-one] |
| > 6.00 | Cc1[nH]nc2c1c(=O)n(CCCN)c1ccc(CCCO)cc21 [Example 301, 5-(3-Amino-propyl)-8-(3-hydroxy-propyl)-3-methyl 2,5-dihydro-pyrazolo[4,3-c]quinolin-4-one] |
